Experimental findings from patent publication US20230227406A1, “MODULATORS OF E3 LIGASES” (Rekindle Therapeutics Inc., priority 2020, published 2023) are described below.

Assay [1] has as its target T1, WWP1 (Homo sapiens, UniProt Q9H0M0).
T1 construct: purchased Ubiquigent 63-0034-025/30033/D
The assay can be described thus: WWP1 MALDI-MS ubiquitin depletion assay (auto-ubiquitination). Type of assay: biochemical. The conditions noted are these: 30 min pre-incubation, 90 minutes at 37° C. As to the method: Modulators designed in these ways were tested for HECT domain E3 ligase activity in a MALDI TOF assay of auto-ubiquitination (De Cesare et al, Cell Chem. Biol, 2018, 25, 1117)
UBE1 (E-305 Boston Biochem), UBE2D1 (E2-616 Boston Biochem), WWP1 (Ubiquigent #63-0034-025/30033/D), ubiquitin variants (Boston Biochem; ubiquitin: U-100H; WT-His6-Ub: U-530; K27R-His6-Ub:UM-HK27R; K27O-His6-Ub: UM-HK27O), alpha-cyano-4-hydroxycinnamic acid (CHCA), ATP, trifluoroacetic acid (Millipore Sigma, St. Louis, Mo.), 384-well round-bottom polypropylene microplates (781280, Greiner, Stonehouse, UK), 384-well Anchorchip MALDI targets and Peptide Calibration Standard II (Bruker Daltonics, Billerica, Mass.).
Protocol: The WWP1 ubiquitin depletion assay consists of recombinant UBE1 (5 nM), UBE2D1 conjugating enzyme (60 nM) and WWP1 ligase (50 nM) in a 10 mM HEPES pH 8.0 containing 0.1 mg/mL BSA, 10 mM MgCl2, 1 mM ATP and 1500 nM ubiquitin. Screening was performed by dispensing 3.5 μL of an enzyme solution containing UBE1 (10 nM), UBE2D1 (120 nM), WWP1 (100 nM), ubiquitin ([…]) to a 384-well round bottom polypropylene plates followed by incubation at 37° C. for 30 min. Reactions were initiated by the addition of 3.5 μL of an ATP solution (2000 nM) then incubated at 37° C. for 90 minutes before being quenched by the addition of 5 μL of a 50 mM EDTA solution containing 750 nM of a ubiquitin labelled with a histidine expression tag (m/z=9460.0 Da).
For detection of ubiquitin and the ubiquitin-6His internal standards, 50 nL of quenched reaction was dispensed onto a 384-well Anchorchip MALDI target plate (Bruker) pre-coated with a uniform layer of CHCA crystals immediately followed by 200 nL of a 3 mg/mL CHCA matrix solution (6 mg of CHCA dissolved in 0.7 mL of 100% ethanol and 1.3 mL of 0.31% aqueous TFA) using a TTP Labtech Mosquito liquid handler. Spectra for all reactions were acquired on a Bruker AutoFlex II in positive linear TOF mode from 1000 laser shots with ion suppression below 4000 Da. Spectra were analyzed for response using a centroid peak-fitting algorithm to quantify ubiquitin (m/z=8564.0 Da) and ubiquitin-6His (m/z=9460.0 Da) followed taking the ratio of intensities of ubiquitin and the ubiquitin-6His internal standard.
For compound screening, 140 nL of diluted compound in 100% DMSO was added to the WWP1 enzyme solution and pre-incubated for 30 minutes prior to reaction initiation.

In the next assay the test system is DU-145 cells. Nature of the assay: Cellular proliferation assay (MTS) in DU-145 cells. The conditions noted are these: Homo sapiens, 72 hours of incubation, read-out: IC50 values for selected compounds in DU-145 cells. Type of assay: cell-based. As to the method:
DU-145 cells were trypsinized, counted via Trypan blue method and resuspended in DMEM complete medium (10% FBS with Pen-strep antibiotics) as described in Lieu et al, Mol Cel Endorinol, 87:19-28, 1992. Cells were seeded at a density of 100 cells per well in 1001 volume of 96-well cell culture plate and were incubated overnight at 37° C. in 5% CO2 incubator. The next day, cells were given fresh media and the test compounds were added in different concentrations. After 72 hours of incubation, MTS reagent (procured from Promega) was added to the cells and they were incubated for an additional 2 hours. Finally, the plates read in the absorbance mode at 490 nm using an ELISA plate reader (Perkin Elmer Victor X3 plate reader). The % growth values were calculated as [(T−T0)/(C−T0)]×100, where T0 is the OD of cells at the time of compound addition, C is the vehicle control, T is the OD of the test concentrations at 72 hours. Percentage inhibition values were calculated using 100−([(T−T0)/(C−T0)]×100). IC50 values were calculated in graph pad prism software using dose response curve nonlinear regression method.

Assay [2] has as its system phosphorylated AKT and phosphorylated Ribosomal Protein S6. The assay can be described thus: Western blot of AKT and S6 phosphorylation in Hs578T cells. The conditions noted are these: 48 hours, indicated concentrations. Type of assay: cell-based, human. How it is done: Hs578T cells (human triple negative breast cancer) were treated with the indicated concentration of COMPOUND 1 for 48 hours prior to harvesting. The “0” concentration is DMSO only (0.5%, same as was used for compound doses). […] Analysis occurred via western blot using the indicated antibodies. Quantification by densitometry of the bands from the western blot are presented for phosphorylated AKT/Total AKT and phosphorylated Ribosomal Protein S6/Total Ribosomal Protein S6. COMPOUND 1 reduced both AKT and S6 phosphorylation relative to their respective total protein levels.
The data presented here are consistent with the previous replicate in Hs578T cells, and the observation is preserved in another TNBC cell line, BT-20. COMPOUND 1 reduces the phospho-AKT/vinculin loading control and phospho-S6/total S6 ratios. Methods are the same as the previous replicate, using the indicated doses.
Hs578T cells (human triple negative breast cancer) were treated with the indicated concentration of COMPOUND 6 for 48 hours prior to harvesting. The “0” concentration is DMSO only (0.5%, same as was used for compound doses). […] Analysis occurred via western blot using the indicated antibodies.
The data presented here are consistent with the previous replicate in Hs578T cells. COMPOUND 6 reduces the phospho-AKT/vinculin loading control and phospho-S6/total S6 ratios. Methods are the same as the previous replicate, using the indicated doses.
Hs578T cells (human triple negative breast cancer) were treated with the indicated concentration of COMPOUND 7 for 48 hours before harvesting. The “0” concentration is DMSO only (0.5%, same as was used for compound doses). […] Analysis occurred via western blot using the indicated antibodies.
The data presented here are consistent with the previous replicate in Hs578T cells. COMPOUND 7 reduces the phospho-S6/vinculin loading control ratio. Methods are the same as the previous replicate, using the indicated doses.
(§1) Hs578T cells (human triple negative breast cancer) were treated with the indicated concentration of COMPOUND 8 for 48 hours and then harvested. The “0” concentration is DMSO only (0.5%, same as was used for compound doses). […] Analysis occurred via western blot using the indicated antibodies.
On the technique in general: A western blot detects proteins with antibodies after separation by electrophoresis.

In assay [3] the test system is PD-L1. The assay can be described thus: Western blot of PD-L1 in Hs578T cells. The conditions noted are these: 48 hours, indicated concentrations of compound. Type of assay: cell-based, human. As to the method:
Hs578T cells (human triple negative breast cancer) were treated with the indicated concentration of COMPOUND 1 for 48 hours prior to harvesting. The “0” concentration is DMSO only (0.5%, same as was used for compound doses). […] Analysis occurred via western blot using the indicated antibodies. Quantification by densitometry of the bands from the western blot are presented for PD-L1/Vinculin (loading control) in the absence of interferon gamma, and glycosylated/non-glycosylated PD-L1 in the presence of interferon gamma.
The data presented here are consistent with the previous replicate in Hs578T cells, and the observation is preserved in another TNBC cell line, BT-20. COMPOUND 1 increases PD-L1 levels and the glycosylated PD-L1/non-glycosylated PD-L1 ratio. Methods are the same as the previous replicate, using the indicated doses.
Hs578T cells (human triple negative breast cancer) were treated with the indicated concentration of COMPOUND 6 for 48 hours before harvesting. The “0” concentration is DMSO only (0.5%, same as was used for compound doses). […] Analysis occurred via western blot using the indicated antibodies. PD-L1 protein levels were reduced relative to the vinculin loading control upon compound treatment. This effect is observed in the presence and absence of interferon gamma (IFN, 25 ng/mL in cell culture media during the drug treatment).
Hs578T cells (human triple negative breast cancer) were treated with the indicated concentration of COMPOUND 7 for 48 hours prior to harvesting. The “0” concentration is DMSO only (0.5%, same as was used for compound doses). […] Analysis occurred via western blot using the indicated antibodies. PD-L1 protein levels were reduced relative to the vinculin loading control upon 319-02 treatment.
The data presented here are consistent with the previous replicate in Hs578T cells. COMPOUND 7 reduces the PD-L1/vinculin loading control ratio. Methods are the same as the previous replicate, using the indicated doses.
as §1
PD-L1-APC (BD Biosciences) and a matched isotype control were used to visualize PD-L1 cell surface expression by flow cytometry (1:250 dilution). As shown by western blot, the knockdown of WWP1 yielded increased PD-L1 protein levels, including an increase in the glycosylated band.
Total RNA was isolated using an RNeasy kit from Qiagen.

The subject of the next assay is SARS-CoV-2. Type of assay: cell-based. The conditions noted are these: Vero cells, 36 hours.
The test system of assay [4] is PD-L1. The assay can be described thus: Western blot of PD-L1 in multiple cancer cell lines after siRNA, shRNA or interferon gamma. Type of assay: cell-based, human. The conditions noted are these: 25 ng/mL, 48 hours. From the text: Relative to the vinculin loading control, interferon gamma upregulates PD-L1 protein levels within TNBCs shown to express PD-L1 at baseline.
Analysis occurred via western blot using the indicated antibodies.

A further assay relates to WWP1 mRNA. The assay can be described thus: qPCR of WWP1 mRNA in Du145 shRNA cell lines. The conditions noted are these: vs empty vector control lines.
Assay [5] concerns WWP1. Nature of the assay: Western blot of WWP1 protein levels after siRNA, shRNA, ASO or interferon gamma. The conditions noted are these: A549 and Hs578T cells, 25 ng/mL, 48 hours.
Protocol: Cells were treated with 10 nM pooled siRNA (IDT) and harvested 48 hours after. Cells were lysed in RIPA buffer containing protease and phosphatase inhibitors on ice.
Prior to harvesting, A549 and Hs578T cells were cultured for 48 hours in the presence or absence of interferon gamma (25 ng/mL in the cell culture media) or 10 nM pooled siRNA (IDT). Cells were lysed in RIPA buffer containing protease inhibitors on ice. Lysates were analyzed by western blot using the indicated antibodies.
Hs578T, BT-20 and A549 cells were cultured for 48 hours in the presence or absence of interferon gamma (25 ng/mL in the cell culture media), presence of absence of 10 nM pooled siRNA (IDT), or both. […] Lysates were analyzed by western blot using the indicated antibodies. […]
Cells were treated with 10 nM pooled siRNA for the indicated gene (IDT) and harvested 48 hours after (split for protein and RNA analysis). […] Lysates were analyzed by western blot using the indicated antibodies.
Cells were treated with 10 nM pooled siRNA for the indicated gene (IDT) and harvested after 48 hours. […] Lysates were analyzed by western blot using the indicated antibodies.
RNAiMax Lipofectamine (Thermo) was used as the transfection reagent at the manufacturer's recommended concentration. […] Western blots were used to quantify protein levels, using antibodies against Vinculin and WWP1.

T1 sequence (Q9H0M0 whole entry): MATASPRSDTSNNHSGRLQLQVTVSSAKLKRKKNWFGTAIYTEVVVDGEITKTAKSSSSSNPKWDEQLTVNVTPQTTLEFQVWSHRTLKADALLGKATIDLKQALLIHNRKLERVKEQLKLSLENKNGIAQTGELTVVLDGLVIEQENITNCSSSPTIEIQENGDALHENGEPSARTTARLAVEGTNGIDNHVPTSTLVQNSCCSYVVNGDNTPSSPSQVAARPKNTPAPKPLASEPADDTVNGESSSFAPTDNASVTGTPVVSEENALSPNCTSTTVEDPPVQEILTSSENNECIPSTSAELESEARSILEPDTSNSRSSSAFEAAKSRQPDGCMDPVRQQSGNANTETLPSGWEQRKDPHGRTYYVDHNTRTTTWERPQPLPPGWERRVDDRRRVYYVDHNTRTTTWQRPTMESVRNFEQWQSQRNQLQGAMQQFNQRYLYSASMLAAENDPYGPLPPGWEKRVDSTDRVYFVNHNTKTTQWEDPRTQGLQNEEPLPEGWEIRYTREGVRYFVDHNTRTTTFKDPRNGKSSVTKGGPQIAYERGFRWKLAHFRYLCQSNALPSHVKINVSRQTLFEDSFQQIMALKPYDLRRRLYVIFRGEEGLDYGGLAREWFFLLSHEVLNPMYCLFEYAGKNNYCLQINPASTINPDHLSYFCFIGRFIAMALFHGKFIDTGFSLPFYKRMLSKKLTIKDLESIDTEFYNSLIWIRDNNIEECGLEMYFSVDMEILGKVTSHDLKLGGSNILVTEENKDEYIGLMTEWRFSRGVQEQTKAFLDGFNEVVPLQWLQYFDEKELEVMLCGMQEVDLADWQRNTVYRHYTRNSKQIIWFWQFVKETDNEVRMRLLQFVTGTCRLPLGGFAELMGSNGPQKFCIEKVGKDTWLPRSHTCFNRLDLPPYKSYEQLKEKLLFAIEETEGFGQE
Protocol for WWP1 mRNA: All shRNA constructs were introduced through lentiviral infection under puromycin selection. Cells were cultured for 48 hours in the presence or absence of interferon gamma (25 ng/mL in the cell culture media) at which time a fraction of cells was split for protein and mRNA evaluation. For protein, cells were lysed in RIPA buffer containing protease inhibitors on ice. Total RNA was isolated using the RNeasy kit from Qiagen, prior to reverse transcription to obtain cDNA.

With `N#Cc1cc(NC(=O)c2ccc3c(c2)c(C=O)cn3-c2ccccc2)ccn1` [Compound 2, N-(2-cyanopyridin-4-yl)-3-formyl-1-phenyl-1H-indole-5-carboxamide], the concentration for half-maximal inhibition (IC50) against WWP1 [1] was determined as 26 µM.

Take `O=C(O)c1ccc2[nH]cc(Cc3c[nH]c4ccccc34)c2c1` [Compound 3, 3-((1H-indol-3-yl)methyl)-1H-indole-5-carboxylic acid]: at WWP1 [1], the IC50 was around 300 µM.

Consider `O=C(O)c1ccc2c(Cc3c[nH]c4ccccc34)c[nH]c2c1` [Compound 4, 3-((1H-indol-3-yl)methyl)-1H-indole-6-carboxylic acid], for which the IC50 on WWP1 [1] is 29 µM; with DU-145 cells, 0.08 µM.

Take `C#CCNC(=O)c1ccc2c(Cc3c[nH]c4ccccc34)c(C)[nH]c2c1` [Compound 5, 3-((1H-indol-3-yl)methyl)-2-methyl-N-(prop-2-yn-1-yl)-1H-indole-6-carboxamide]: the concentration for half-maximal inhibition (IC50) is 45 µM at WWP1 [1] and 5.48 µM with DU-145 cells.

As for `Fc1cccc2[nH]cc(Cc3c[nH]c4cccc(F)c34)c12` [Compound 8, bis(4-fluoro-1H-indol-3-yl)methane], the half-inhibitory concentration (IC50) at WWP1 [1] was 49 µM; with DU-145 cells, 12 µM. The “S6 phosphorylation (relative to total S6 or vinculin loading control)” value in assay [2] was “reduced”. In the assay on PD-L1 [3], the “PD-L1 levels (relative to vinculin loading control)” value was “reduced”.

Consider `Fc1ccc2[nH]cc(Cc3c[nH]c4ccc(F)cc34)c2c1` [Compound 9, bis(5-fluoro-1H-indol-3-yl)methane], for which it took 66 µM to reach half-maximal inhibition on WWP1 [1] (IC50).

As to `OCc1c[nH]c2ccccc12` [Compound I3C, Indole-3-carbinol], in the assay with SARS-CoV-2 (2.5 μM), the “impact on SARS-CoV-2 infection” value is given as “little impact on infection”. Also, the “inhibition of SARS-CoV-2 infection” value with SARS-CoV-2 (5 μM) was above 75%.

Take “interferon gamma: interferon gamma, a stimulator of PD-L1 expression”: the “induced PD-L1 expression” value in the assay with PD-L1 [4] (MCF-7 cells (ER+)) is “not readily observable”. Moreover, in the assay on PD-L1 [4] (TNBCs (Hs578T, BT-20)), the “PD-L1 protein levels relative to vinculin” value is reported as “upregulates”. The “KD (reduction) of WWP1 mRNA by qPCR” value with WWP1 mRNA is 15%. For the same compound, the WWP1 levels result in the assay on WWP1 [5] was “reduced”.

A word on the IC50: it is the concentration that inhibits the measured activity by half.
